Source: US7199217B2, “Amidated glucagon-like peptide-1” (Eli Lilly and Company, priority 2000, dated 2007)

Experiments:
[1] = target: T1, human GLP-1 receptor (Homo sapiens, UniProt P43220); test: In vitro activity, HEK-293 Aurora CRE-BLAM cells, β-lactamase reporter; format: cell-based; details: comparison with the acid form; test not specified
T1 construct: expressed in transfected cells; host or cells: HEK-293 Aurora CRE-BLAM cells
From the text: The day after seeding, the medium is replaced with plasma free medium.

[2] = Aggregation time in solution, turbidity at 350 nm while stirred; format: physicochemical; details: 37° C.; 0.3 mg/mL in 10 mM citrate, 10 mM phosphate, 150 mM NaCl, pH 7.4 to 7.5, stirred
Protocol: The peptides in solution were stirred at elevated temperature in a suitable buffer while recording turbidity at 350 nm as a function of time. Time to the onset of aggregation was measured to quantify the potential of each GLP-1 molecule to aggregate under these stressed conditions.
In general, the peptides in solution were stirred at elevated temperature in a suitable buffer while recording turbidity at 350 nm as a function of time. Time to the onset of aggregation was measured to quantify the potential of a given GLP molecule to aggregate under these stressed conditions.
The GLP-1 peptides were first dissolved under alkaline conditions (pH 10.5) for 30 minutes to dissolve any pre-aggregated material. The solution was then adjusted to pH 7.4 and filtered. Specifically, 4 mg of a lyophilized GLP-1 peptide was dissolved in 3 mL of 10 mM phosphate/10 mM citrate. The pH was adjusted to 10.0–10.5 and held for 30 minutes. The solution was adjusted with HCl to pH 7.4 and filtered through a suitable filter, for example a Millex® GV syringe filter (Millipore Corporation, Bedford, Mass.). This solution was then diluted to a final sample containing 0.3 mg/mL protein in 10 mM citrate, 10 mM phosphate, 150 mM NaCl, and adjusted to pH 7.4 to 7.5. […] Every five minutes the turbidity of the solution was measured at 350 nm on an AVIV Model 14DS UV-VIS spectrophotometer (Lakewood, N.J.). […]

T1 sequence (P43220 24-463): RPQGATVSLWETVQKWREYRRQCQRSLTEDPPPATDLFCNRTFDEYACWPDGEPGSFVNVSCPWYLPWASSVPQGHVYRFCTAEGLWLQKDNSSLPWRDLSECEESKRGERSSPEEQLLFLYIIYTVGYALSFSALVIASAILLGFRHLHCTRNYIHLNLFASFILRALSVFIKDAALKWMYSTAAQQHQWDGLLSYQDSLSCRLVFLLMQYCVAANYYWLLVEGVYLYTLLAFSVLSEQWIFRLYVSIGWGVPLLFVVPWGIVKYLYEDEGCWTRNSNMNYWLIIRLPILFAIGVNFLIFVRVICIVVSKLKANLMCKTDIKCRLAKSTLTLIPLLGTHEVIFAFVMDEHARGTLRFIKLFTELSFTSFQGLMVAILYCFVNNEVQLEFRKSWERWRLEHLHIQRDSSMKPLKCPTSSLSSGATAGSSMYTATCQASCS

Potency compared to the acid form Val^8-GLP-1(7–37)OH (in words) [1]	Substance	Time to onset of aggregation [2]
slightly less potent than the acid form	Val^8-GLP-1(7–36)NH2	
	Val^8-GLP-1(7–37)NH2 (HXEGTFTSDVSSYLEXQAAKXFIXWLVKGRX; C-terminal amide) [GLP-1(7–37)OH wherein Ala at position 8 has been substituted with Val and Gly at position 37 has been amidated]	approximately 23 hours
